Entries after “also recorded” stand apart in the source; their conditions may differ.
Legend:
xanthine oxidase = details: previous studies; cited from earlier work
[1] = system: dopaminergic neurons in the midbrain; test: Apoptosis in MPTP treated mice (In Situ Apoptosis Detection Kit, tyrosine hydroxylase staining); type: in vivo, mouse (C57BL/6); details: MPTP 25 mg/kg ip twice; 48 hours
Procedure: After 48 hours the mice were perfused through the left ventricle with phosphate buffered saline (PBS) and then with 4% formaldehyde and 0.2% glutaraldehyde in PBS. The brains were coronally sliced into 50μ sections in a vibrating microtome.
To detect individual cells undergoing apoptosis, the In Situ Apoptosis Detection Kit (Oncor) was used. In this method, the fragmented DNA ends are extended with digoxigenin-dUTP. An anti-digoxigenin antibody then binds to the extension and is detected by a peroxidase reaction as previously described.
Tyrosine hydroxylase staining was done to identify dopaminergic neurons in the substantia nigra. The IgG polyclonal antibodies used were: a rabbit antibody to tyrosine hydroxylase; a sheep antibody to rabbit IgG and a rabbit antibody to horseradish peroxidase with the horseradish peroxidase coupled to the antibody^22. The tyrosine hydroxylase-stained brain slices were mounted on glass slides, dehydrated and coverslipped with balsam.

[2] = system: DNA in midbrain and striatum of C57BL/6 mice; test: Fluorimetric assay of DNA fragmentation in MPTP treated mice (Table 7); type: in vivo, mouse (C57BL/6); details: for DNA damage, MIDBRAIN: MPTP 25 mg/kg ip twice, mean ± S.D.
Text: A fifth group was the control. Brains were removed and the midbrain and striatum isolated.

[3] = system: poly(ADP-ribose) polymerase (PADPRP); details: cited from earlier work
24 month old mice = details: mouse, in vivo, 500 mg/kg
[4] = system: hydroxyl radicals generated by the addition of 0.4M hydrogen peroxide; test: Quenching of hydroxyl radicals (EPR); details: 0.1M nicotinamide
Procedure: (§1) EPR spectra were measured at 23° and 100 kHz in a Bruker model ECS 106 spectrometer (Bruker, Karlsruhe, Germany). The EPR conditions were: modulation amplitude 0.483G, microwave power 20 mW and time constant 1.3 seconds.

[5] = system: superoxide radicals produced by xanthine oxidase; test: Quenching of superoxide radicals (EPR); details: 0.1M nicotinamide
Procedure: as §1

ATP = details: known effect of nicotinamide; cited from earlier work

SMILES: C[n+]1ccc(-c2ccccc2)cc1 [MPP+]
- substrate for xanthine oxidase (xanthine oxidase): can act as a substrate for xanthine oxidase

SMILES: CN1CC=C(c2ccccc2)CC1 [MPTP, 1-methyl-4-phenyl-1,2,3,6-tetrahydropyridine]
- apoptotic cells in dopaminergic neurons in the midbrain [1]: Apoptotic cells with shrunken and fragmented nuclei were detected
- DNA fragmentation in the midbrain ([2]; 25 mg/kg MPTP twice, 48 hours, p<0.05): Significant DNA fragmentation
- DNA damage, MIDBRAIN ([2]; 2 hours): 0.9108 ± 0.2233 per gram of tissue
- DNA damage, MIDBRAIN ([2]; 48 hours, * p<0.05 vs control): 1.6373 ± 0.4567 per gram of tissue

SMILES: NC(=O)c1cccnc1 [nicotinamide]
- inhibition of poly(ADP-ribose) polymerase [3]: inhibits poly(ADP-ribose) polymerase; also recorded: weak inhibitor
- deaths (24 month old mice): one out of six
- quenching of hydroxyl radicals [4]: able to quench hydroxyl radicals
- quenching of superoxide radicals [5]: able to quench superoxide radicals
- ATP levels (ATP): elevate NAD levels and ATP levels

— patent publication US5736529A, “Use of NAD-related compounds in the treatment of neural trauma to inhibit neurodegeneration” (priority 1996, dated 1998)
